# From US20150284362A1, “CARBAZOLE-CONTAINING AMIDES, CARBAMATES, AND UREAS AS CRYPTOCHROME MODULATORS” (ReSet Therapeutics, Inc., priority 2014, published 2015)
# Tests used:
# [1] = test system: C57/Bl6J DIO mice; assay: 7 day dosing in diet-induced obesity (DIO) mouse model of type II diabetes; format: in vivo; settings: 100 mg/kg PO QD 7 days
# From the text: Male C57/Bl6J DIO mice were obtained from The Jackson Laboratory (Sacramento, Calif.). […] Animals were accustomed to these conditions for at least 2 weeks before experimentation and used at approximately 24 weeks of age.
# Significance was accepted when p<0.05.
# [2] = test system: core clock gene mRNAs in liver; assay: Single dose at peak (ZT0) or nadir (ZT10) of Cry1, liver core clock gene mRNAs; format: in vivo, mouse; settings: db/db mice; single dose 50 mg/kg at ZT0 or ZT10; liver 7.5 hours later
# Procedure: For compounds that interact directly with the core clock mechanism, the time of dosing may be critical for maximizing their effects. […] The former (ZT0) is coincident with the peak of Cry1 and Bmal1 protein in mouse liver and the latter (ZT10) corresponds to the approximate nadir of Cry1 and Bmal1. Liver tissue was taken 7.5 hours later for each, and the samples were examined for core clock gene mRNAs by RT-qPCR.
# [3] = test system: core clock gene mRNAs in liver; assay: Four day study, liver core clock gene mRNA, ICR mice; format: in vivo, mouse; settings: 50 mg/kg PO BID 4 days, ZT6
# Procedure: Male ICR mice (weighing 30-35 g), obtained from Charles River Laboratories (Hollister, Calif.), were used for the experiment following at least 3 days of acclimation. Mice were dosed with vehicle (WFI or 10% Kolliphor) or compound (50 mg/kg, dose volume 5 mL/kg, PO) for 4 days BID (twice a day), beginning in the afternoon of the first day. The last dose of compound or vehicle was administered on the morning of harvest. On the day of harvest (6 hours following the final dose), mice were euthanized by CO2 asphyxiation and 50 mg of liver tissue was excised and placed in a tube containing 500 μl of RNA later.
# E.Z.N.A.® HP Total RNA Isolation Kits (R6812-01 and the protocol described in the Manual, Revised 2010) were utilized to prepare and isolate RNA from the liver samples. To prepare the RNA samples, 10-30 mg of sample was removed from RNA-Later and placed in a 1.5 ml microfuge tube. […] The cleared supernatant was transferred by pipetting to a DNA Clearance Column Pre-inserted in a 2 mL Collection Tube. The assembled column was centrifuged at 13,000×g for 1 minute, and the flow-through was saved. An equal volume (700 μl) of 70% ethanol was added to the lysate and mixed. The sample was then applied to a HiBind RNA spin column placed into a 2 ml collection tube, which was centrifuged at 10,000×g for 60 seconds at room temperature. RNA Wash Buffer I (250 μl) was added by pipetting directly onto a new HiBind RNA column inserted in a 2 ml collection tube. The assembled column was centrifuged at 10,000×g for 60 seconds. The RNA column was placed into a new 2 ml collection tube. […] The column with bound RNA was incubated at room temperature (25-30° C.) for 15 minutes. RNA Wash Buffer I (500 μl) was added to the column and placed on a bench top for 2 minutes. After centrifuging at 10,000×g for 60 seconds, discarding the flow-through, 500 μl of RNA Wash Buffer II was added and centrifuged at 10,000×g for 60 seconds. Another 500 μl of RNA Wash Buffer II was added and the column assembly was centrifuged at 10,000×g for 60 seconds. The column was centrifuged for 2 minutes at maximum speed to completely dry the HiBind matrix. The column was placed in a clean 1.5 ml microcentrifuge tube and 40-70 μl of molecular biology grade water is added. After sitting for 1 minute, the column was centrifuged for 2 minutes at maximum speed to elute the RNA. The isolated RNA was collected into the collection tube.
# RediPlate 96 RiboGreen RNA Quantification Kit (Invitrogen) RediPlate standard curve was prepared by transferring 20 μl reconstituted RNA standard to a RediPlate well reconstituted in 180 μl RediPlate TE buffer. For liver RNAs prepared from 30-100 mg of tissue using a kit similar to the Omega Bio-Tek HP Total RNA Kit and eluted in RNAse-free water in a volume of 50 μl (microliters), 5 μl of the total RNA is diluted in 195 μl of RediPlate TE buffer (1:40 dilution of RNA), mix. […] Alternatively, one can use the FlexStation 3 with Ex 488 nm and Em 525 nm and a Cutoff of 515 nm.
smiles,measurement,setting,value
"O=C1NCCN1CC(O)Cn1c2ccc(F)cc2c2cc(F)ccc21 (stereo not shown) [Compound 72, 1-(3-(3,6-difluoro-9H-carbazol-9-yl)-2-hydroxypropyl)imidazolidin-2-one]",OGTT glucose vs vehicle control group,[1],much lower than the vehicle control group
same,"impact on core clock gene mRNAs in liver, dosing at peak vs nadir",[2],greater relative impact on the clock mRNAs at the peak compared to the nadir
same,Cry2 transcripts in liver,[3],decrease
same,liver Per2 expression,[3],suppression
